Experimental data from patent publication US10227359B2, “Tricyclic heterocycles as bet protein inhibitors” (Incyte Corporation, priority 2014, dated 2019).

How the values were obtained:
[1] = tested on: KMS.12.BM cell line (human myeloma); assay: KMS.12.BM Cell Viability Assay; assay type: cell-based; conditions: 72 h, KMS.12.BM cells, 3 days, Cell Titer-GLO, read-out: KMS cellular IC50
Method: Example B1: KMS.12.BM Cell Viability Assay
KMS.12.BM cell line (human myeloma) was purchased from JCRB (Osaka, Japan) and maintained in RPMI with 10% FBS culture medium. To measure the cytotoxic activity of the compounds through ATP quantitation, the KMS.12.BM cells are plated in the RPMI culture medium at 5000 cells/well/per 100 μL into a 96-well polystyrene clear black tissue culture plate (Greiner-bio-one through VWR, NJ), in the presence or absence of a concentration range of test compounds. After 3 days, […] Cell Titer-GLO Luminescent (Promega, Madison, Wis.) cell culture agent is added to each well for 10 min. at room temperature to stabilize the luminescent signal. This determines the number of viable cells in culture based on quantitation of the ATP present, which signals the presence of metabolically active cells. Luminescence is measured with the Top Count 384 (Packard Bioscience through Perkin Elmer, Boston, Mass.). Compound inhibition is determined relative to cells cultured with no drug and the IC50 reported as the compound concentration required for 50% cell death.

[2] = tested on: C-myc in KMS.12.BM cells; assay: KMS.12.BM C-myc ELISA Assay; assay type: cell-based; conditions: Homo sapiens, 2 h
Method: KMS.12.BM C-myc ELISA Assay
KMS.12.BM cell line (human myeloma) was purchased from JCRB (Osaka, Japan) and maintained in RPMI with 10% FBS culture medium. To measure the C-myc inhibitory activity of the compounds, the KMS.12.BM cells are plated in the RPMI culture medium at 75000 cells/well/per 200 μL into a 96-well flat bottom polystyrene tissue culture plate (Corning through VWR, NJ), in the presence or absence of a concentration range of test compounds. After 2 h, cells are pelleted and lysed with Cell Extraction Buffer (BioSource, Carlsbad, Calif.) in the presence of protease inhibitors (Life Technologies, Grand Island, N.Y. and Sigma, St Louis, Mo.). Clarified lyses are tested in a C-myc commercial ELISA (Life Technologies, Grand Island, N.Y.). Compound inhibition is determined relative to cells cultured with no drug and the IC50 reported as the compound concentration required for 50% C-myc inhibition.

Row | SMILES | IC50 [1] | IC50 [2]
1 | Cc1noc(C)c1-c1ccc2nc(N3CCN(C(=O)C(C)C)CC3)n3c2c1OC[C@@H]3c1ccccn1 [Example 1, (4S)-7-(3,5-Dimethylisoxazol-4-yl)-2-(4-isobutyrylpiperazin-1-yl)-4-pyridin-2-yl-4,5-dihydroimidazo[1,5,4-de][1,4]benzoxazine] | ≤ 0.1 µM | ≤ 0.1 µM
2 | CC(=O)N1CCN(c2nc3ccc(-c4c(C)noc4C)c4c3n2[C@@H](c2ccccn2)CO4)[C@@H](C)C1 [Example 3, (4S)-2-[(2S)-4-acetyl-2-methylpiperazin-1-yl]-7-(3,5-dimethylisoxazol-4-yl)-4-pyridin-2-yl-4,5-dihydroimidazo[1,5,4-de][1,4]benzoxazine] | ≤ 0.1 µM | ≤ 0.1 µM
3 | CC(=O)N1CC2CC1CN2c1nc2ccc(-c3c(C)noc3C)c3c2n1[C@@H](c1ccccn1)CO3 (stereo partly drawn) [Example 4, (4S)-2-(5-acetyl-2,5-diazabicyclo[2.2.1]hept-2-yl)-7-(3,5-dimethylisoxazol-4-yl)-4-pyridin-2-yl-4,5-dihydroimidazo[1,5,4-de][1,4]benzoxazine] | ≤ 0.1 µM | ≤ 0.1 µM
4 | CCC(=O)N1CCN(c2nc3ccc(-c4c(C)noc4C)c4c3n2[C@@H](c2ccccn2)CO4)C[C@@H]1C [Example 8, (4S)-7-(3,5-dimethylisoxazol-4-yl)-2-[(3S)-3-methyl-4-propionylpiperazin-1-yl]-4-pyridin-2-yl-4,5-dihydroimidazo[1,5,4-de][1,4]benzoxazine] | ≤ 0.1 µM | ≤ 0.1 µM
5 | Cc1noc(C)c1-c1ccc2nc(N3CCN(C(=O)C(C)C)[C@@H](C)C3)n3c2c1OC[C@@H]3c1ccccn1 [Example 9, (4S)-7-(3,5-dimethylisoxazol-4-yl)-2-[(3S)-4-isobutyryl-3-methylpiperazin-1-yl]-4-pyridin-2-yl-4,5-dihydroimidazo[1,5,4-de][1,4]benzoxazine] | ≤ 0.1 µM | ≤ 0.1 µM
6 | CCCC(=O)NC1CCN(c2nc3ccc(-c4c(C)noc4C)c4c3n2[C@@H](c2ccccn2)CO4)CC1 [Example 10, N-{1-[(4S)-7-(3,5-dimethylisoxazol-4-yl)-4-pyridin-2-yl-4,5-dihydroimidazo[1,5,4-de][1,4]benzoxazin-2-yl]piperidin-4-yl}butanamide] | ≤ 0.1 µM | ≤ 0.1 µM
7 | Cc1noc(C)c1-c1ccc2nc(N3CCC(NC(=O)C(C)(C)C)CC3)n3c2c1OC[C@@H]3c1ccccn1 [Example 11, N-{1-[(4S)-7-(3,5-dimethylisoxazol-4-yl)-4-pyridin-2-yl-4,5-dihydroimidazo[1,5,4-de][1,4]benzoxazin-2-yl]piperidin-4-yl}-2,2-dimethylpropanamide] | ≤ 0.1 µM | ≤ 0.1 µM
8 | CCS(=O)(=O)NC1CCN(c2nc3ccc(-c4c(C)noc4C)c4c3n2[C@@H](c2ccccn2)CO4)CC1 [Example 14, N-{1-[(4S)-7-(3,5-dimethylisoxazol-4-yl)-4-pyridin-2-yl-4,5-dihydroimidazo[1,5,4-de][1,4]benzoxazin-2-yl]piperidin-4-yl}ethanesulfonamide] | ≤ 0.1 µM | ≤ 0.1 µM
9 | Cc1noc(C)c1-c1ccc2nc(N3CCC(N(C)C(=O)C(C)C)CC3)n3c2c1OC[C@@H]3c1ccccn1 [Example 17, N-{1-[(4S)-7-(3,5-dimethylisoxazol-4-yl)-4-pyridin-2-yl-4,5-dihydroimidazo[1,5,4-de][1,4]benzoxazin-2-yl]piperidin-4-yl}-N,2-dimethylpropanamide] | ≤ 0.1 µM | ≤ 0.1 µM

Other lines, results leading:

Row | IC50 [1] | IC50 [2] | SMILES
10 | ≤ 0.1 µM | ≤ 0.1 µM | CC(=O)N1C[C@@H](C)N(c2nc3ccc(-c4c(C)noc4C)c4c3n2[C@@H](c2ccccn2)CO4)[C@@H](C)C1 (atropisomer, axis not shown) [Example 2, (4S)-2-[(2R,6S)-4-Acetyl-2,6-dimethylpiperazin-1-yl]-7-(3,5-dimethylisoxazol-4-yl)-4-pyridin-2-yl-4,5-dihydroimidazo[1,5,4-de][1,4]benzoxazine]
11 | ≤ 0.1 µM | ≤ 0.1 µM | CC(=O)NC1(C)CCN(c2nc3ccc(-c4c(C)noc4C)c4c3n2[C@@H](c2ccccn2)CO4)CC1 [Example 5, N-{1-[(4S)-7-(3,5-dimethylisoxazol-4-yl)-4-pyridin-2-yl-4,5-dihydroimidazo[1,5,4-de][1,4]benzoxazin-2-yl]-4-methylpiperidin-4-yl}acetamide]
12 | ≤ 0.1 µM | ≤ 0.1 µM | CC(=O)N(C)C1CCN(c2nc3ccc(-c4c(C)noc4C)c4c3n2[C@@H](c2ccccn2)CO4)CC1 [Example 6, N-{1-[(4S)-7-(3,5-dimethylisoxazol-4-yl)-4-pyridin-2-yl-4,5-dihydroimidazo[1,5,4-de][1,4]benzoxazin-2-yl]piperidin-4-yl}-N-methylacetamide]
13 | ≤ 0.1 µM | ≤ 0.1 µM | CC(=O)N1CCN(c2nc3ccc(-c4c(C)noc4C)c4c3n2[C@@H](c2ccccn2)CO4)C[C@@H]1C [Example 7, (4S)-2-[(3S)-4-acetyl-3-methylpiperazin-1-yl]-7-(3,5-dimethylisoxazol-4-yl)-4-pyridin-2-yl-4,5-dihydroimidazo[1,5,4-de][1,4]benzoxazine]
14 | ≤ 0.1 µM | ≤ 0.1 µM | Cc1noc(C)c1-c1ccc2nc(N3CCC(NC(=O)C4CC4)CC3)n3c2c1OC[C@@H]3c1ccccn1 [Example 12]
15 | ≤ 0.1 µM | ≤ 0.1 µM | Cc1noc(C)c1-c1ccc2nc(N3CCC(NC(=O)C4CCC4)CC3)n3c2c1OC[C@@H]3c1ccccn1 [Example 13, N-{1-[(4S)-7-(3,5-dimethylisoxazol-4-yl)-4-pyridin-2-yl-4,5-dihydroimidazo[1,5,4-de][1,4]benzoxazin-2-yl]piperidin-4-yl}cyclobutanecarboxamide]
16 | ≤ 0.1 µM | ≤ 0.1 µM | CCC(=O)N(C)C1CCN(c2nc3ccc(-c4c(C)noc4C)c4c3n2[C@@H](c2ccccn2)CO4)CC1 [Example 15, N-{1-[(4S)-7-(3,5-dimethylisoxazol-4-yl)-4-pyridin-2-yl-4,5-dihydroimidazo[1,5,4-de][1,4]benzoxazin-2-yl]piperidin-4-yl}-N-methylpropanamide]
17 | ≤ 0.1 µM | ≤ 0.1 µM | CCCC(=O)N(C)C1CCN(c2nc3ccc(-c4c(C)noc4C)c4c3n2[C@@H](c2ccccn2)CO4)CC1 [Example 16, N-{1-[(4S)-7-(3,5-dimethylisoxazol-4-yl)-4-pyridin-2-yl-4,5-dihydroimidazo[1,5,4-de][1,4]benzoxazin-2-yl]piperidin-4-yl}-N-methylbutanamide]
18 | ≤ 0.1 µM | ≤ 0.1 µM | Cc1noc(C)c1-c1ccc2nc(N3CCC(N(C)C(=O)C(C)(C)C)CC3)n3c2c1OC[C@@H]3c1ccccn1 [Example 18, N-{1-[(4S)-7-(3,5-dimethylisoxazol-4-yl)-4-pyridin-2-yl-4,5-dihydroimidazo[1,5,4-de][1,4]benzoxazin-2-yl]piperidin-4-yl}-N,2,2-trimethylpropanamide]
19 | ≤ 0.1 µM | ≤ 0.1 µM | Cc1noc(C)c1-c1ccc2nc(N3CCC(N(C)C(=O)C4CC4)CC3)n3c2c1OC[C@@H]3c1ccccn1 [Example 19, N-{1-[(4S)-7-(3,5-dimelhylisoxazol-4-yl)-4-pyridin-2-yl-4,5-dihydroimidazo[1,5,4-de][1,4]benzoxazin-2-yl]piperidin-4-yl}-N-methylcyclopropanecarboxamide]
